Measured values as given in the NIST ThermoML archive (doi:10.1021/je301084m).
Numbers after ± are expanded uncertainties.

Test: molar heat capacity at constant pressure; wn = mass fraction of the nth substance listed
Conditions: 101 kPa, Liquid, Small sample (50 mg) DSC

For `O=[N+]([O-])[O-].[Li+]` [lithium nitrate] + O, the “molar heat capacity at constant pressure” value (303.15 K, w1 = 0.3) was 79.48 ± 1.8 J/K/mol, the “molar heat capacity at constant pressure” value (303.15 K, w1 = 0.35) was 78.8 ± 1.8 J/K/mol and the “molar heat capacity at constant pressure” value (303.15 K, w1 = 0.4) was 78.86 ± 1.9 J/K/mol. For the same molecule, the “molar heat capacity at constant pressure” value (303.15 K, w1 = 0.45) was 80.9 ± 2 J/K/mol, the “molar heat capacity at constant pressure” value (303.15 K, w1 = 0.5) was 82.01 ± 2.1 J/K/mol and the “molar heat capacity at constant pressure” value (303.15 K, w1 = 0.55) was 83.66 ± 2.2 J/K/mol. For the same molecule, the “molar heat capacity at constant pressure” value (313.15 K, w1 = 0.3) was 80.01 ± 1.8 J/K/mol, the “molar heat capacity at constant pressure” value (313.15 K, w1 = 0.35) was 79.55 ± 1.8 J/K/mol and the “molar heat capacity at constant pressure” value (313.15 K, w1 = 0.4) was 79.65 ± 1.9 J/K/mol. For the same molecule, the “molar heat capacity at constant pressure” value (313.15 K, w1 = 0.45) was 81.5 ± 2 J/K/mol, the “molar heat capacity at constant pressure” value (313.15 K, w1 = 0.5) was 82.67 ± 2.1 J/K/mol and the “molar heat capacity at constant pressure” value (313.15 K, w1 = 0.55) was 84.48 ± 2.2 J/K/mol. For the same molecule, the “molar heat capacity at constant pressure” value (313.15 K, w1 = 0.6) was 86.04 ± 2.3 J/K/mol, the “molar heat capacity at constant pressure” value (323.15 K, w1 = 0.3) was 80.61 ± 1.8 J/K/mol and the “molar heat capacity at constant pressure” value (323.15 K, w1 = 0.35) was 80.5 ± 1.8 J/K/mol. For the same molecule, the “molar heat capacity at constant pressure” value (323.15 K, w1 = 0.4) was 80.42 ± 1.9 J/K/mol, the “molar heat capacity at constant pressure” value (323.15 K, w1 = 0.45) was 81.79 ± 2 J/K/mol and the “molar heat capacity at constant pressure” value (323.15 K, w1 = 0.5) was 83.53 ± 2.1 J/K/mol. The “molar heat capacity at constant pressure” value (323.15 K, w1 = 0.55) was 84.72 ± 2.2 J/K/mol, the “molar heat capacity at constant pressure” value (323.15 K, w1 = 0.6) was 86.29 ± 2.3 J/K/mol and the “molar heat capacity at constant pressure” value (333.15 K, w1 = 0.3) was 81.26 ± 1.8 J/K/mol. The “molar heat capacity at constant pressure” value (333.15 K, w1 = 0.35) was 81.18 ± 1.8 J/K/mol, the “molar heat capacity at constant pressure” value (333.15 K, w1 = 0.4) was 81.37 ± 1.9 J/K/mol and the “molar heat capacity at constant pressure” value (333.15 K, w1 = 0.45) was 82.23 ± 2 J/K/mol. For the same molecule, the “molar heat capacity at constant pressure” value (333.15 K, w1 = 0.5) was 83.73 ± 2.1 J/K/mol, the “molar heat capacity at constant pressure” value (333.15 K, w1 = 0.55) was 84.66 ± 2.2 J/K/mol and the “molar heat capacity at constant pressure” value (333.15 K, w1 = 0.6) was 86.88 ± 2.3 J/K/mol. The “molar heat capacity at constant pressure” value (343.15 K, w1 = 0.3) was 81.58 ± 1.8 J/K/mol, the “molar heat capacity at constant pressure” value (343.15 K, w1 = 0.35) was 81.76 ± 1.9 J/K/mol and the “molar heat capacity at constant pressure” value (343.15 K, w1 = 0.4) was 81.83 ± 1.9 J/K/mol. The “molar heat capacity at constant pressure” value (343.15 K, w1 = 0.45) was 82.71 ± 2 J/K/mol, the “molar heat capacity at constant pressure” value (343.15 K, w1 = 0.5) was 84.07 ± 2.1 J/K/mol and the “molar heat capacity at constant pressure” value (343.15 K, w1 = 0.55) was 85.17 ± 2.2 J/K/mol. The “molar heat capacity at constant pressure” value (343.15 K, w1 = 0.6) was 87.07 ± 2.3 J/K/mol, the “molar heat capacity at constant pressure” value (353.15 K, w1 = 0.3) was 82.28 ± 1.8 J/K/mol and the “molar heat capacity at constant pressure” value (353.15 K, w1 = 0.35) was 82.27 ± 1.9 J/K/mol. For the same molecule, the “molar heat capacity at constant pressure” value (353.15 K, w1 = 0.4) was 82.62 ± 1.9 J/K/mol, the “molar heat capacity at constant pressure” value (353.15 K, w1 = 0.45) was 83.71 ± 2 J/K/mol and the “molar heat capacity at constant pressure” value (353.15 K, w1 = 0.5) was 84.56 ± 2.1 J/K/mol. For the same molecule, the “molar heat capacity at constant pressure” value (353.15 K, w1 = 0.55) was 86.18 ± 2.2 J/K/mol, the “molar heat capacity at constant pressure” value (353.15 K, w1 = 0.6) was 87.75 ± 2.3 J/K/mol and the “molar heat capacity at constant pressure” value (363.15 K, w1 = 0.3) was 82.69 ± 1.8 J/K/mol. The “molar heat capacity at constant pressure” value (363.15 K, w1 = 0.35) was 82.93 ± 1.9 J/K/mol, the “molar heat capacity at constant pressure” value (363.15 K, w1 = 0.4) was 83.28 ± 1.9 J/K/mol and the “molar heat capacity at constant pressure” value (363.15 K, w1 = 0.45) was 84.98 ± 2 J/K/mol. The “molar heat capacity at constant pressure” value (363.15 K, w1 = 0.5) was 85.84 ± 2.1 J/K/mol, the “molar heat capacity at constant pressure” value (363.15 K, w1 = 0.55) was 87.3 ± 2.2 J/K/mol and the “molar heat capacity at constant pressure” value (363.15 K, w1 = 0.6) was 88.43 ± 2.3 J/K/mol. For the same molecule, the “molar heat capacity at constant pressure” value (373.15 K, w1 = 0.4) was 84.15 ± 1.9 J/K/mol, the “molar heat capacity at constant pressure” value (373.15 K, w1 = 0.45) was 86.11 ± 2 J/K/mol and the “molar heat capacity at constant pressure” value (373.15 K, w1 = 0.5) was 86.64 ± 2.1 J/K/mol. For the same molecule, the “molar heat capacity at constant pressure” value (373.15 K, w1 = 0.55) was 88.09 ± 2.2 J/K/mol and the “molar heat capacity at constant pressure” value (373.15 K, w1 = 0.6) was 89.63 ± 2.3 J/K/mol.
